Reference: US9358266B2, “Treatment of sepsis using complement inhibitors” (The Trustees of the University of Pennsylvania, priority 2010, dated 2016)

Columns and labels:
complement [1] = assay: Complement activation products and complement activity in plasma, baboon LD50 E. coli sepsis; format: in vivo, Papio cyanocephalus
[2] = test system: baboons infused with live E. coli (LD50 dose); assay: Immunofluorescence and qRT-PCR of hemostatic proteins (PAI-1, TF, TFPI, TM) in lung and liver, baboon LD50 E. coli sepsis; format: in vivo, Papio cyanocephalus; conditions: for PAI1 mRNA in liver: vs non-challenged controls (1±0.6), E. coli alone 22-fold (±9)
[3] = test system: baboons infused with live E. coli (LD50 dose); assay: Coagulation tests (fibrinogen, FDP, APTT), baboon LD50 E. coli sepsis; format: in vivo, Papio cyanocephalus
[4] = test system: baboons infused with live E. coli (LD50 dose); assay: Immunofluorescence of complement pathway proteins in kidney, baboon LD50 E. coli sepsis; format: in vivo, Papio cyanocephalus
[5] = test system: baboons infused with live E. coli (LD50 dose); assay: Histopathological analysis of organs, baboon LD50 E. coli sepsis; format: in vivo, Papio cyanocephalus
[6] = test system: baboons infused with live E. coli (LD50 dose); assay: Blood pressure and organ function biochemical tests, baboon LD50 E. coli sepsis; format: in vivo, Papio cyanocephalus
[7] = test system: baboons infused with live E. coli (LD50 dose); assay: Hematological parameters and cell accumulation in organs, baboon LD50 E. coli sepsis; format: in vivo, Papio cyanocephalus
[8] = test system: baboons infused with live E. coli (LD50 dose); assay: Plasma cytokines multiplex assay, baboon LD50 E. coli sepsis; format: in vivo, Papio cyanocephalus
complement [9] = assay: Complement activation in LD100 model of E. coli sepsis in baboons; format: in vivo, Papio cyanocephalus; conditions: for % Complement Activation at T+120 min: untreated avg. 2.8
Procedure: (§1) Reagents, Compstatin analog and live E. coli organisms were obtained or prepared as described in Example 1. Papio cyanocephalus baboons were infused with 2-3×10^10 CFU/kg live E. coli (LD100 dose) as described (Taylor F B, Jr., et al., 2000, Blood 95: 1680-1686). The time point at which the infusion was started was indicated as T-0, a time point of n minutes or hours thereafter referred to as T+n minutes (or hours). The Compstatin analog was administered at three different concentrations as an intravenous bolus followed by continuous infusion.
(§2) Complement activity was measured in accordance with known methods. Survival time was also recorded.

primate C3 = primate C3 (Homo sapiens, UniProt P01024); conditions: Janssen et al. 2007; cited from earlier work
human complement = conditions: relative to baboon complement; Sahu et al. 2003; cited from earlier work
[10] = test system: baboons infused with live E. coli (LD100 dose); assay: Survival time in LD100 model of E. coli sepsis in baboons; format: in vivo, Papio cyanocephalus; conditions: for Survival Time: no antibiotics
Procedure: as §1, §2

baboon complement = conditions: relative to human complement; Sahu et al. 2003; cited from earlier work
[11] = septic baboons, infusion with Compstatin analog
[12] = lung cryosections immunofluorescence, both early and late treatments, FIG. 5A
[13] = immunofluorescence MFI of kidney cryosections, T+24, T0 and T+5 treatment, FIG. 2
[14] = kidney immunofluorescence, FIG. 2
[15] = histology at 24 hrs vs non-treated group
[16] = both preventive and rescue therapy, data not shown

Sequence of primate C3 (P01024 23-1663): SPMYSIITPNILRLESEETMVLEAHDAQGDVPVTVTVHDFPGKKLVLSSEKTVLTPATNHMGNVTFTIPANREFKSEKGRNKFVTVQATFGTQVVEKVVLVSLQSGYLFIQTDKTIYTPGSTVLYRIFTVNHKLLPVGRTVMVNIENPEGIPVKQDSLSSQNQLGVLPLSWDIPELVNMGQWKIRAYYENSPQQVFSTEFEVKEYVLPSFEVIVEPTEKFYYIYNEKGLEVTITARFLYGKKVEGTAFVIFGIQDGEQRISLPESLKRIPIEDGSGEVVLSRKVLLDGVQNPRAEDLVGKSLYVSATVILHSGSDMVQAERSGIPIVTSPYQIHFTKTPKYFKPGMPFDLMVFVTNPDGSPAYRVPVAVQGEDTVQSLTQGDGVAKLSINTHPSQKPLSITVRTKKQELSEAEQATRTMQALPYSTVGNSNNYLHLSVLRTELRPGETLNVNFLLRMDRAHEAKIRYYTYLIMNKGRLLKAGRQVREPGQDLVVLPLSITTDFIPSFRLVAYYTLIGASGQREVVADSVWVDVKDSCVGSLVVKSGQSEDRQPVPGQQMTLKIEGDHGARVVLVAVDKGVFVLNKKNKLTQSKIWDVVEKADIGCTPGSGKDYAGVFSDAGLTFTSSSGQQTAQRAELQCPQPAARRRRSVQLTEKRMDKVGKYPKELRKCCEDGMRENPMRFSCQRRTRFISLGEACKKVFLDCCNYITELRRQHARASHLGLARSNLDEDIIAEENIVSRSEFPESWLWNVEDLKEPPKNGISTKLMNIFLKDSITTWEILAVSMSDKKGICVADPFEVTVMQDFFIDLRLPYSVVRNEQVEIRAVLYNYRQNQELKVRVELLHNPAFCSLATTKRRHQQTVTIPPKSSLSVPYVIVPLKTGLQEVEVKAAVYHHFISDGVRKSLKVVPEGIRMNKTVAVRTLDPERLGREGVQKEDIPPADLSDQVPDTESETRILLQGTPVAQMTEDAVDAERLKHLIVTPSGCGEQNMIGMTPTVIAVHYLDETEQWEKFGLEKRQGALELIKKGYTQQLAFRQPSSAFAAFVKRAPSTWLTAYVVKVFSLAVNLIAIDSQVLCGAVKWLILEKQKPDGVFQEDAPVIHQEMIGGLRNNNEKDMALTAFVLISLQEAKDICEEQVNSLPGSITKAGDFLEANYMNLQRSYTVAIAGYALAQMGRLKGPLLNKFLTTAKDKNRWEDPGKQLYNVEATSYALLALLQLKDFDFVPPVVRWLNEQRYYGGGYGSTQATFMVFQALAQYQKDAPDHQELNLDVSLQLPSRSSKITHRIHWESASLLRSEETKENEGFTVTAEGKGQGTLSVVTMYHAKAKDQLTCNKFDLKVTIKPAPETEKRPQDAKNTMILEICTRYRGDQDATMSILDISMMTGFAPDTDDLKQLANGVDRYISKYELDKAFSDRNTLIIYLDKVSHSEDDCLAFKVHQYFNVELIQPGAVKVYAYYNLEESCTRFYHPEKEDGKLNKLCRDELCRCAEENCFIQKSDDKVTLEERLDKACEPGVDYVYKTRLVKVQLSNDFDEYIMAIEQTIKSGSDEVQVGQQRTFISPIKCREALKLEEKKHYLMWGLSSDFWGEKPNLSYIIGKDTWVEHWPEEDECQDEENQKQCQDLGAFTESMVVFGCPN

## Ac-I[CVW(Me)QDWGAHRCT]I-NH2 [Compstatin analog]
Complement [1]; 10 mg/kg iv bolus + 60 μg/kg/min, both preventive (T0 to T+8) and rescue (T+5 to T+11) treatments, FIG. 1A
  plasma complement activity: inhibited
Complement [1]; 10 mg/kg iv bolus + 60 μg/kg/min, both preventive (T0 to T+8) and rescue (T+5 to T+11) treatments, FIG. 1B
  plasma TCC levels: inhibited
Complement [1]; rescue regimen (T+5 to T+11) compared with prevention group, FIG. 1B
  late rise of plasma TCC levels: averting the late rise observed in the prevention group
Complement [1]; [11]
  C3a generation: rapidly inhibited
  C3b generation: rapidly inhibited
[2]; [12]
  E. coli induced PAI-1 staining in lung: decreased
  E. coli induced TF staining in lung: decreased
  TFPI in endothelial cells of lung: protected against sepsis-induced downregulation
  TM in endothelial cells of lung: protected against sepsis-induced downregulation
[2]; treated animals
  TF expression in the lung: decrease
  monocyte/macrophages infiltration in the lung: decrease
[2]; treated at T0, mean (±SEM 8)
  PAI1 mRNA in liver: 8 fold
[2]; treated at T+5, mean (±SEM 0.8)
  PAI1 mRNA in liver: 4 fold
[2]; treated versus non-treated septic baboons
  PAI-1 expression in endothelial cells and macrophages: down-regulated
[3]; after 24 hours, compared with non-treated animals, FIG. 4A
  fibrinogen levels: fully recovered and overshot the initial values
[3]; first eight hours post-challenge, FIG. 4A
  fibrinogen consumption: reduced fibrinogen consumption
[3]; treated vs non-treated animals, FIG. 4B
  FDP levels: significantly lower
[3]; treated vs non-treated animals, FIG. 4C
  APTT: slightly decreased
[4]; [13]
  C3b deposition in the kidney: significantly inhibited
  C5b9 deposition in the kidney: significantly inhibited
  MBL deposition in the kidney: significantly inhibited
[4]; [14]
  shedding of CD55 from the endothelial surface: protected against shedding
  shedding of CD59 from the endothelial surface: protected against shedding
[4]; qRT-PCR, data not shown
  mRNA expression of CD55 and CD59: without significantly affecting
[5]; T+24, two treated groups (T0, T+5) vs E coli challenge group, P<0.001, with the exception of the lung congestion, FIG. 7
  histopathologic changes of the tissues (graded 0 to 4): significantly less severe
[5]; [15]
  cell death in adrenals and spleen: decreased cell death
  hepatocyte vacuolization and liver degeneration: lack of hepatocyte vacuolization and liver degeneration
  leukocyte infiltration in the lung, liver adrenals and spleen: less leukocyte infiltration
  thrombosis or capillary leak in the lungs: no obvious signs of thrombosis or capillary leak
  tubular necrosis and glomerular thrombosis in the kidneys: no or less tubular necrosis and glomerular thrombosis
[5]; organs collected after 24 hrs
  organ protection by histological analysis: substantial organ-protection
[6]; T+8 and T+24, two treatment groups vs non treated septic animals, FIG. 6B
  creatinine, magnitude of the response: lower
[6]; T+8 and T+24, two treatment groups vs non treated septic animals, FIG. 6C
  LDH, magnitude of the response: lower
[6]; T+8 and T+24, two treatment groups vs non treated septic animals, FIG. 6D
  ALT, magnitude of the response: lower
[6]; T+8 and T+24, two treatment groups vs non treated septic animals, FIG. 6E
  AST, magnitude of the response: lower
[6]; early treatment (T0 to T+8), FIG. 6A
  decrease of mean systemic arterial blood pressure: virtually abolished this decrease
[6]; treatment during the second stage (T+5 to T+11), compared with septic untreated baboons, FIG. 6A
  mean systemic arterial blood pressure: higher recovery of the blood pressure in the late phase
[7]; FIG. 3C
  accumulation of macrophages in the lung: lower accumulation
[7]; FIG. 3D-E
  accumulation of platelets in the lung and on the surface of the large vessels: lower accumulation
[7]; both prevention and rescue regimens, FIG. 3A
  WBC count in blood: faster WBC recovery
[7]; both prevention and rescue regimens, FIG. 3B
  platelet count in blood (platelet consumption): lower plasma platelet consumption
[7]; immunostaining for cell specific markers, not shown
  number of neutrophils: without significant changes
[7]; immunostaining, lung, FIG. 3C
  CD68 positive macrophages: significant decrease
[7]; lung and large vessels, FIG. 3D-E
  C5b9 deposition on aggregated platelets: decreased C5b9 deposition
[8]; 23-plex assay, nine increased by sepsis, except eotaxin and IL-6, data not shown
  effect on plasma cytokines: marginal
[8]; [16]
  plasma IL-6: reduction
  plasma eotaxin: reduction

## CC[C@H](C)[C@H](N)C(=O)N[C@H]1CSSC[C@@H](C(=O)N[C@H](C(N)=O)[C@@H](C)O)NC(=O)[C@H](CCCN=C(N)N)NC(=O)[C@H](Cc2cnc[nH]2)NC(=O)[C@H](Cc2cnc[nH]2)NC(=O)CNC(=O)[C@H](Cc2c[nH]c3ccccc23)NC(=O)[C@H](CC(=O)O)NC(=O)[C@H](CCC(N)=O)NC(=O)[C@H](C(C)C)NC(=O)[C@H](C(C)C)NC1=O [Compstatin, Ile-Cys-Val-Val-Gln-Asp-Trp-Gly-His-His-Arg-Cys-Thr]
Complement [9]; animal 1, bolus 0.33 mg/kg T−0, 1.74 mg/kg T+60, infusion 20 μg/min/kg (8 hrs), total 58 mg
  % Complement Activation at T+120 min: 0.6%
Complement [9]; animal 2, bolus 1.0 mg/kg T−0, 2.3 mg/kg T+60, infusion 20 μg/min/kg (8 hrs), total 78 mg
  % Complement Activation at T+120 min: 0.5%
Complement [9]; animal 3, bolus 10 mg/kg T−0, infusion 200 μg/min/kg (8 hrs), total 760 mg
  % Complement Activation at T+120 min: 0.0%
Complement [9]; animal receiving the highest concentration
  inhibition of complement activation by T+120 minutes: complete inhibition
Complement [9]; animals receiving the lesser concentrations
  inhibition of complement activation by T+120 minutes: substantial inhibition
Primate C3
  binding to primate C3: specifically binds
Human complement
  inhibition of human complement: approximately equimolar concentrations
[10]; animal 1, bolus 0.33 mg/kg T−0, 1.74 mg/kg T+60, infusion 20 μg/min/kg (8 hrs)
  Survival Time: 31.5 h
[10]; animal 2, bolus 1.0 mg/kg T−0, 2.3 mg/kg T+60, infusion 20 μg/min/kg (8 hrs)
  Survival Time: 7.0 h
[10]; animal 3, bolus 10 mg/kg T−0, infusion 200 μg/min/kg (8 hrs)
  Survival Time: 11.5 h
[10]; no antibiotic treatment
  survival of treated animals: died within a few hours
Baboon complement
  inhibition of baboon complement: approximately equimolar concentrations
